Biological target: Lysine-specific histone demethylase 1A (Homo sapiens, UniProt O60341)
Test: In Vitro Enzyme Inhibition Assay: The enzymatic assay of LSD1 activity is based on Time Resolved-Fluorescence Resonance Energy Transfer (TR-FRET) detection. […] Plates were read by EnVision Multilabel Reader in TR-FRET mode (excitation at 320 nm, emission at 615 nm and 665 nm) after 1 hour incubation at room temperature.

Work on `CCn1c(-c2ccc(OC)cc2)c(-c2ccc(C#N)c(F)c2)cc(N2CCC(N)CC2)c1=O` yielded an IC50 of less than 100 nM.
